Measured values published in publication PMC6407204, “Oral administration of the cannabigerol derivative VCE-003.2 promotes subventricular zone neurogenesis and protects against mutant huntingtin-induced neurodegeneration” (Translational Neurodegeneration, 2019).
Where two headings read alike, the source gives them in different places.

Tests used:
S. typhimurium TA100 = assay: AMES reverse mutation assay, TA100; assay type: cell-based
Experimental: Supplementary file 40035_2019_148_MOESM4_ESM.pdf: Additional file 4: AMES Data Summary. AMES Experimental Procedure. Approximately ten million bacteria are exposed in triplicate to VCE-003-.2 (7.8, 15.6, 31.3, 62.5, 125 and 250 μg/ml), a negative control (vehicle) and a positive control for 90 min in medium containing a low concentration of histidine (sufficient for about 2 doublings). The cultures were then diluted into indicator medium lacking histidine and dispensed into 48 wells of a 384 well plate (micro-plate format, MPF). The plate was incubated for 48 h at 37 °C, and the number of wells showing growth were counted and compared to the vehicle control. An increase in the number of colonies of at least two-fold over baseline (mean + SD of the vehicle control) and a dose response indicates a positive response. […] Where indicated, S9 fraction from the livers of Aroclor 1254-treated rats was included in the incubation at a final concentration of 4.5%. An NADPH-regenerating system is also included to ensure a steady supply of reducing equivalents. The strains used in this study were S. typhimurium TA98 (hisD3052, rfa, uvrB/pKM10 for detection of frame-shift mutations) and S. typhimurium TA100 ([…], rfa, uvrB/pKM101 for detection of base-pair substitutions). VCE-003.2 was assessed for its mutagenic potential in the AMES reverse mutation assay. This test was performed in the absence and presence of S9 metabolic activation. […] The positive controls all behaved as expected. (PDF 568 kb)

[1] = Pharmacokinetics in rats, plasma and brain by LC-MS/MS; assay type: in vivo, Sprague Dawley rats; details: rat; for concentration at 24 h: brain at 24 h; for AUC(0-t) / Cmax / Tmax: plasma; for bioavailability: oral 50 mg/kg vs i.v. 10 mg/kg, dose-corrected AUCt ratio
Experimental: Six-week old male Sprague Dawley rats (Janvier Labs, France) were located in the rodent area of Eurofins ADME Bioanalyses (Vergèze, France) and housed under standard conditions (12-h light/dark cycle) in groups with access to food and water ad libitum. Each animal was identified by an ear tag and examined for general health and welfare. Process, treatment and euthanasia were conducted according to the current procedures in use at Eurofins ADME Bioanalyses. Animals were treated with a single intravenous bolus of VCE-003.2 (10 mg/Kg in DMSO) or with oral VCE-003.2 (50 mg/Kg in sesame oil). At the prescribed times, blood (0.5 ml) was collected using a capillary tube and plasma frozen at − 20 °C until analysis. After 24 h, the animals were anesthetized and perfused with 20 mL of saline solution directly into the heart to extract the maximal blood sample from the brain. Plasma samples (100 μl) were mixed with 300 μl of acetonitrile and after protein precipitation, analysis of VCE-003.2 content was performed using LC-MS/MS (3 animals per each time point). For brain samples, the tissues were homogenized with an Ultra-turrax® using UHQ water (1/1, w/w). 100 μl of each homogenate was mixed with 300 μl of acetonitrile and the mixture centrifuged for 5 min at 25,000 g. Brain homogenate supernatants were directly measured by LC-MS/MS. Previous studies have shown that there are not significant differences between mice and rats in the main pharmacokinetic parameters of different cannabinoids, including CBG [18]. As the dose used here was different between i.v. and oral routes of administration, bioavailability was calculated taking into account the dose as follows: [AUCt (oral)/dose (oral)]/[AUCt(i.v.)/dose(i.v.)].

[2] = system: quinolinic acid-administration model of HD; design: method as in PMID 27430371; details: cited from earlier work
[3] = Microsomal metabolic stability
Experimental: The final incubation volume was 25 μL. […] The reactions were stopped by the addition of 50 μL methanol containing internal standard at the appropriate time points. The incubation plates were centrifuged at 2500 rpm for 20 min at 4 °C to precipitate the protein. Following protein precipitation, the sample supernatants were analyzed using LC-MS/MS. From a plot of ln peak area ratio (compound peak area/internal standard peak area) against time, the gradient of the line was determined. Subsequently, half-life and intrinsic clearance was calculated using the equations below: Elimination rate constant (k) = (− gradient).

[4] = male, Sprague Dawley, in vivo, iv, single i.v. 10 mg/kg
[5] = male, Sprague Dawley, in vivo, single oral 50 mg/kg in sesame oil

CCCCCC1=C(NCC)C(=O)C(CC=C(C)CCC=C(C)C)=C(O)C1=O [VCE-003.2, 2-(3,7-dimethyl-octa-2,6-dienyl)-6-ethylamino-3-hydroxy-5-pentyl-(1,4) benzoquinone]
AMES Result (S. typhimurium TA100; TA100, S9 no): Negative | AMES Result (S. typhimurium TA100; TA100, S9 yes): Negative | concentration at 24 h [1, 4]: 0.0937 ± 0.0377 µg/mL | AUC(0-t) [1, 4]: 475 µg·h/mL | Cmax [1, 4]: 83.2 µg/mL | Tmax [1, 4]: 4.8 min | concentration at 24 h ([1]; male, Sprague Dawley, in vivo, single oral 50 mg/kg): 0.0868 ± 0.034 µg/mL | AUC(0-t) [1, 5]: 327 µg·h/mL | Cmax [1, 5]: 20.3 µg/mL | Tmax [1, 5]: 480 min | bioavailability ([1]; male, Sprague Dawley, in vivo, read-out: Bioavailability): 13.8% | bioavailability [1]: 13.77% | neuroprotection in quinolinic acid model of HD [2]: neuroprotective | intrinsic clearance in vitro (in words) ([3]; human liver microsomes): rapid intrinsic clearance | half-life ([3]; human, microsomes, pH 7.4): 10.6 min | microsomal CLint ([3]; human, microsomes, pH 7.4): 131 µL/min/mg
